The source of these data is PMC12228513 (Journal of the American Chemical Society, 2025).

The target in this test is T1, AlnA (Streptomyces sp. CM020, UniProt B6SEG5).
T1 sequence (B6SEG5 1-306): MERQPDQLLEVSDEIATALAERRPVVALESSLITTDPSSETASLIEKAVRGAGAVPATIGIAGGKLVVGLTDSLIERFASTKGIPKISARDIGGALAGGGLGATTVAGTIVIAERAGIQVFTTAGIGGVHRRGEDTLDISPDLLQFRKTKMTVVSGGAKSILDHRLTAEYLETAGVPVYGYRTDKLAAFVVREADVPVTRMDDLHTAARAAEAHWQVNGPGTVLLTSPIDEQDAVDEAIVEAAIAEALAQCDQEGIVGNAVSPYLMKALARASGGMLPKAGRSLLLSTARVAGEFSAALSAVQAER
The test is described as follows: protein mass spectrometry after NaBH4 trapping. The test is classed as binding. Conditions: covalent; Schiff base at Lys159.

`O=P(O)(O)OC[C@H]1OC(O)[C@H](O)[C@@H]1O` (stereo partly shown) [compound 4, ribose 5-phosphate]: the “protein mass spectrometry after NaBH4 trapping; tryptic proteolysis” value is on record as “the covalent modification occurred at the highly conserved Lys159 residue in AlnA”.
